Here are results for 1 molecule from US20160193240A1, “Ulmoside-A: Useful For Prevention Or Cure Of Metabolic Diseases” (COUNCIL OF SCIENTIFIC & INDUSTRIAL RESEARCH, priority 2013, published 2016).

The test system of one assay is db/db mice. Briefly: Body weight of db/db mice. It is filed as in vivo, mouse. The note with it: 5 mg/kg ULMA for 15 d. On the procedure:
8 week old db/db mice were treated with vehicle (V; 1% gum acacia) or with 5 mg/kg ULMA for 15 days and the body weights were measured on 0th, 7th, 10th, or 15th day of treatment and plotted. ** p<0.01, n=6.
8 week old female db/db mice (n=6) weighing 40-50 g were divided into 2 groups and maintained as above. Control groups received vehicle (1% gum acacia) and ULMA groups received 5 mg/kg bw ULMA in 1% gum acacia for […]. Body weight and blood glucose were measured at the beginning and end of the studies.

In another assay the test system is pAMPK, pACC and pP38. In words: AMPK, ACC and p38 phosphorylation by western blot in C2C12 myotubes. It is filed as cell-based, mouse. The note with it: 10 nM. On the procedure: A. ULMA induces rapid AMPK and p38MAPK signaling. C2C12 myotubes in 10 cm dishes were treated with vehicle (0.1% vol/vol DMSO; 0 min) or 10 nM ULMA for different time points ranging from 1 min to 24 h (final concentration of DMSO in all wells were 0.1% vol/vol). Following treatment, the cells were washed with ice-cold PBS and then lysed. The total protein was estimated by Bradford assay and equal amount of protein (50 μg) was resolved by denaturing polyacrylamide gel electrophoresis and western blotted to determine pAMPK, pACC and pP38 level. Total AMPK, total ACC or total P38 levels were used as loading controls. Data is representative of three independent experiments displaying identical pattern (right panel depicts densitometry from 3 experiments).
B. AdipoR1 overexpression enhances ULMA effect on AMPK and p38 MAPK signaling. C2C12 myoblasts growing in T75 flasks were trypsinized and transfected with […] of either empty vector (pcDNA3) or AdipoR1 expression plasmid using lipofectamine LTX transfection reagent and then the cells were plated in 10 cm dishes. 24 h following transfection, cells were incubated in differentiation medium and maintained in the same medium for 96 h when the cells differentiated fully into myotubes. These cells were then treated with vehicle (DMSO) or ULMA (10 nM) for 10 mins. The cells were then lysed and western blotted for the indicated proteins. Data is representative of three independent experiments displaying identical pattern.
C. Knockdown of AdipoR1 abrogates ULMA effect on AMPK and p38 signalling. C2C12 myotubes in 6 well plates were transfected with 100 nM non-silencing control or AdipoR1 siRNAs using DharmaFECT 1 transfection reagent (Thermo). 72 h following transfection, cells were treated with vehicle (DMSO) or ULMA (10 nM) for 10 min and were western blotted to evaluate pAMPK, pACC, p38, AdipoR1, and R2 status. Total AMPK, ACC, p38 and beta-actin were used as loading controls.
C2C12 myotubes in 10 cm dishes were treated with vehicle (0.1% DMSO; 0 min) or 10 nM ULMA for different time points ranging from 1 min to 24 hour. Following treatment, the cells were washed with ice-cold PBS and then lysed in lysis buffer [1M NaCl, 50 mM HEPES and 0.1% triton X 100 containing 1× protease inhibitor cocktail and 1× phosphates inhibitor cocktail (Sigma)]. The total protein was estimated by Bradford assay and equal amount of protein (50 μg) was resolved by denaturing polyacrylamide gel electrophoresis and western blotted for determination of pAMPK, pACC and pP38 levels (in all the cases the primary antibodies were used in 1:1000 dilution and all the antibodies were from Cell signaling technology). Total AMPK, ACC and p38 expressions were also detected and used as loading controls (all the antibodies were from Cell signaling technology and were used in 1:1000 dilution). […] To evaluate if AdipoRs are indeed involved in the regulation of these pathways by ULMA, C2C12 myoblasts growing in T75 flasks were trypsinized and transfected with 10 μg of either empty vector (pcDNA3) or AdipoR1 expression plasmid using lipofectamine LTX transfection reagent and then the cells were plated in 10 cm dishes. 24 hours following transfection, cells were incubated in differentiation medium and were maintained in the same medium for 96 hours when the cells fully differentiated into myotubes. These cells were then treated with vehicle (DMSO) or ULMA (10 nM) for 10 min. The cells were then lysed (as mentioned above) and western blotted. […] This was further validated in knockdown experiments where C2C12 myotubes in 6 well plates were transfected with 100 nM non-silencing control or AdipoR1 siRNAs using DharmaFECT 1 transfection reagent (Thermo). 72 hours following transfection, cells were treated with vehicle (DMSO) or ULMA (10 nM) for 10 min and were western blotted to evaluate pAMPK, pACC, pP38, AdipoR1, and R2 status.

`O=C1c2c(cc(O)c([C@@H]3O[C@H](CO)[C@@H](O)[C@H](O)[C@H]3O)c2O)O[C@@H](c2ccc(O)c(O)c2)[C@@H]1O` [ULMA, (2S,3S)-(+)-3′,4′,5,7-tetrahydroxydihydroflavonol-6-C-β-D-glucopyranoside]: in the assay on db/db mice, the “body weight compared to vehicle treated control mice” value is given as “significantly reduced body weight”. In the assay with pAMPK, pACC and pP38 (1 min to 24 hour), the “phosphorylation of ACC” value was “rapid and robust phosphorylation”; the “phosphorylation of AMPK” value was “rapid and robust phosphorylation”; the “phosphorylation of p38” value is recorded as “phosphorylated”. The “response on AMPK, ACC and p38 phosphorylation with siAdipoR1” value with pAMPK, pACC and pP38 (10 min, 100 nM AdipoR1 siRNA) is listed as “completely obliterated ULMA response”. For the same molecule, in the assay on pAMPK, pACC and pP38 (10 min, AdipoR1 expression plasmid vs empty vector), the “effect on AMPK and p38 MAPK signaling with AdipoR1 overexpression” value is “robust increase in effect of ULMA”. In the assay with pAMPK, pACC and pP38 (10 min, non-silencing control siRNA), the “AMPK, ACC and p38 phosphorylation with control siRNA (siC)” value was “phosphorylated AMPK, ACC and P38”.
